The term IC50 denotes the point on the concentration scale where inhibition reaches its midpoint.

“And” between values parts separate entries of the source, which are not always exact repeats. Equal values may be shown once.

Sequence of PI3Kα (P42336 whole entry): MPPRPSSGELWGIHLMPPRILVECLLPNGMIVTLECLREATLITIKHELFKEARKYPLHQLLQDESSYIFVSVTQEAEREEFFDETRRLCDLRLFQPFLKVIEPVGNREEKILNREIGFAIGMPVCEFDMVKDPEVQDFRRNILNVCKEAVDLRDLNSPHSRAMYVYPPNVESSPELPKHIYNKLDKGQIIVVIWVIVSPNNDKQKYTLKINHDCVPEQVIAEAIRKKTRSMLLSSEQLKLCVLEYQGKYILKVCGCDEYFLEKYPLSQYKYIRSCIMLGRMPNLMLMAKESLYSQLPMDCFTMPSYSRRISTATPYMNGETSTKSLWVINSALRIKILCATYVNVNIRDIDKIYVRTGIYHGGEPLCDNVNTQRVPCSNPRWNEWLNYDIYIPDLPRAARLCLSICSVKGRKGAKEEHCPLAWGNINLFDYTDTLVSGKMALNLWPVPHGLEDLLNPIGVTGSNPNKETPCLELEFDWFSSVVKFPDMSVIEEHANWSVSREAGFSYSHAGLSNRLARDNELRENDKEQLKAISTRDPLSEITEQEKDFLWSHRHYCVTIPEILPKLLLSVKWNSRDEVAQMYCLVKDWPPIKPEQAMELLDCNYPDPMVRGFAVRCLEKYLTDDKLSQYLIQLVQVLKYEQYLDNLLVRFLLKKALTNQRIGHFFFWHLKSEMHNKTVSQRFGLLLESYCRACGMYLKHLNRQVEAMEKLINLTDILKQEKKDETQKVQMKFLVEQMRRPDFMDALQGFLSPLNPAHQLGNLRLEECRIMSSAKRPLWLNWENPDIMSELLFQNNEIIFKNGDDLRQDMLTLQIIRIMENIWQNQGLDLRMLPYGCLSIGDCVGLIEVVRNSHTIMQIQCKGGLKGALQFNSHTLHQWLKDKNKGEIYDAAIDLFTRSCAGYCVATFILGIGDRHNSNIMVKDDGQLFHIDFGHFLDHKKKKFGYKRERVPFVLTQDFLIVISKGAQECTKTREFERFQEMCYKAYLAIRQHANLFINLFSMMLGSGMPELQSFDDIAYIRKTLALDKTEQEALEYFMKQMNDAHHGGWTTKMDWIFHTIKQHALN
Sequence of PI3Kα (P27986 whole entry partner): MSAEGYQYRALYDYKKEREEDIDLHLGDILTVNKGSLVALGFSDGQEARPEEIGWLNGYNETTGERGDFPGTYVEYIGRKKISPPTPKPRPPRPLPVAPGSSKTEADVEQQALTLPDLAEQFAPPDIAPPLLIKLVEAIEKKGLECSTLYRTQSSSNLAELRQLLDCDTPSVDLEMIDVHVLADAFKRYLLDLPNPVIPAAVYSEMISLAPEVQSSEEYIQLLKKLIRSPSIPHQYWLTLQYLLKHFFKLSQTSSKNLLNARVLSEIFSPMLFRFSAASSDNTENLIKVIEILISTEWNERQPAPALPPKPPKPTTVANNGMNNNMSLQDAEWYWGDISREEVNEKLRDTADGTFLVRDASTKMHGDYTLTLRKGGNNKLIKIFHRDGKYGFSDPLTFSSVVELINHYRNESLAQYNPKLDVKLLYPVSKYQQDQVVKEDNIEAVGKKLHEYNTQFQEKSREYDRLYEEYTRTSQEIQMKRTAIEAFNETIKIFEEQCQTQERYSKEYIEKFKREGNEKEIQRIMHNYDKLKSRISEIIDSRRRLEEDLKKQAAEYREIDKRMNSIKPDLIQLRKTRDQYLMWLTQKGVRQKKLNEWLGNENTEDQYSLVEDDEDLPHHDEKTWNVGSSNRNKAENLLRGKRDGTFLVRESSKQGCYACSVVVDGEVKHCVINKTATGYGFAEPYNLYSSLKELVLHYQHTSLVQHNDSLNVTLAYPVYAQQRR

The target in one experiment is PI3Kα (Homo sapiens, UniProt P42336). Description: PI3K Biochemical Assays (ATP consumption, luciferase-luciferin chemiluminescence). The conditions noted are these: PI3Kα 1.5 nM, ATP 1 μM, PIP2 10 μM; percent of ATP consumed. As to the method:
PI3Kα activity is measured as the percent of ATP consumed following the kinase reaction using luciferase-luciferin-coupled chemiluminescence. Reactions were conducted in 384-well white, medium binding microtiter plates (Greiner). Kinase reactions were initiated by combining test compounds, ATP, substrate (PIP2), and kinase in a 20 μL volume in a buffer solution. The standard PI3Kalpha assay buffer is composed 50 mM Tris, pH 7.5, 1 mM EGTA, 10 mM MgCl2, 1 mM DTT and 0.03% CHAPS. The standard assay concentrations for enzyme, ATP, and substrate are 1.5 nM, 1 μM, and 10 μM, respectively. The reaction mixture was incubated at ambient temperature for approximately 2 h. Following the kinase reaction, a 10 μL aliquot of luciferase-luciferin mix (Promega Kinase-Glo) was added and the chemiluminescence signal measured using a Victor2 plate reader (Perkin Elmer). Total ATP consumption was limited to 40-60% and IC50 values of control compounds correlate well with literature references. Substituting PI3Kα with PI3KIβ, […], or […], the inhibitory activity of the compounds for the other isoforms of I3K were measured.
On to `CC1CCN(C(=O)N2CCOc3ccc(-c4cc(NCc5ccccc5)[nH]n4)cc3C2)CC1` [Compound 9, 3-{4-[(4-methylpiperidin-1-yl)carbonyl]-2,3,4,5-tetrahydro-1,4-benzoxazepin-7-yl}-N-(phenylmethyl)-1H-pyrazol-5-amine], for which the IC50 was 1000 to 3000 nM.
As for `Cc1nc2ccc(-c3ccc4c(c3)CN(C(=O)N3CCC(C5CCNCC5)CC3)CCO4)cc2[nH]1` [Compound 71, 1-{[7-(2-methyl-1H-benzimidazol-6-yl)-2,3-dihydro-1,4-benzoxazepin-4(5H)-yl]carbonyl}-4,4-bipiperidine], the IC50 is 200 to 500 nM and 500 to 1000 nM.
With `Cc1nc2ccc(-c3ccc4c(c3)CN(C(=O)N3CC[C@@H](O)C3)CCO4)cc2[nH]1` [Compound 78, (3R)-1-{[7-(2-methyl-1H-benzimidazol-6-yl)-2,3-dihydro-1,4-benzoxazepin-4(5H)-yl]carbonyl}pyrrolidin-3-ol], the IC50 was in the range of 500 to 1000 nM.
On the same count and under the same terms, then `Cc1nc2ccc(-c3ccc4c(c3)CN(C(=O)N3CC[C@H](O)C3)CCO4)cc2[nH]1` [Compound 82, (3S)-1-{[7-(2-methyl-1H-benzimidazol-6-yl)-2,3-dihydro-1,4-benzoxazepin-4(5H)-yl]carbonyl}pyrrolidin-3-ol], with 1000 to 3000 nM; and `Cc1nc2ccc(-c3ccc4c(c3)CN(C(=O)N3CCCC3)CCO4)cc2[nH]1` [Compound 87, 7-(2-methyl-1H-benzimidazol-6-yl)-4-(pyrrolidin-1-ylcarbonyl)-2,3,4,5-tetrahydro-1,4-benzoxazepine], with 500 to 1000 nM.

The target of another experiment is mTORC1 (mTOR/GbL/Raptor) (Homo sapiens, UniProt P42345). Description: mTOR/GbL/Raptor (mTORC1) ELISA Assay. The conditions noted are these: 0.2 nM mTORC1, 10 μM ATP, 50 nM NHis-tagged 4E-BP1; phosphorylation of 4E-BP1; read-out: IC50. The experiment is classed as biochemical. As to the method: mTOR/GbL/Raptor (mTORC1) ELISA Assay
The measurement of mTORC1 enzyme activity was performed in an ELISA assay format following the phosphorylation of 4E-BP1 protein. All experiments were performed in the 384-well format. Generally, 0.5 μL DMSO containing varying concentrations of the test compound was mixed with 15 μL enzyme solution. Kinase reactions were initiated with the addition of 15 μL of substrates-containing solution. The assay conditions were as follows; 0.2 nM mTORC1, 10 μM ATP and 50 nM NHis-tagged 4E-BP1 in 20 mM Hepes, pH 7.2, 1 mM DTT, 50 mM NaCl, 10 mM MnCl2, 0.02 mg/mL BSA, 0.01% CHAPS, 50 mM β-glycerophosphate. Following an incubation of 120 minutes at ambient temperature, 20 μL of the reaction volume was transferred to a Ni-Chelate-coated 384-well plate. The binding step of the 4E-BP1 protein proceeded for 60 minutes, followed by washing 4 times each with 50 μL of Tris-buffered saline solution (TBS). Anti-phospho-4E-BP1 rabbit-IgG (20 μL, 1:5000) in 5% BSA-TBST (0.2% Tween-20 in TBS) was added and further incubated for 60 minutes. Incubation with a secondary HRP-tagged anti-IgG was similarly performed after washing off the primary antibody (4 washes of 50 μL). Following the final wash step with TBST, 20 μL of SuperSignal ELISA Femto (Pierce Biotechnology) was added and the luminescence measured using an EnVision plate reader.
In general terms: In an ELISA, binding on a coated surface is turned into a signal by an enzyme label.
As for `Cc1nc2cc(-c3ccc4c(c3)CN(C(=O)N3CC[C@@](C)(O)C[C@@H]3c3ccccc3)CCO4)ccc2[nH]1` (racemic) [Compound 133, (±)-(2R,4R)-4-methyl-1-{[7-(2-methyl-1H-benzimidazol-5-yl)-2,3-dihydro-1,4-benzoxazepin-4(5H)-yl]carbonyl}-2-phenylpiperidin-4-ol], the IC50 lay within 700 to 2600 nM.
Same read-out and setting: then `CC1CCN(C(=O)N2CCOc3ccc(-c4ccc(N)nn4)cc3C2)CC1` [Compound 1, 6-{4-[(4-methylpiperidin-1-yl)carbonyl]-2,3,4,5-tetrahydro-1,4-benzoxazepin-7-yl}pyridazin-3-amine], with 700 to 2600 nM; and `CC1CCN(C(=O)N2CCOc3ccc(-c4cnc(N)cn4)cc3C2)CC1` [Compound 4, 5-{4-[(4-methylpiperidin-1-yl)carbonyl]-2,3,4,5-tetrahydro-1,4-benzoxazepin-7-yl}pyrazin-2-amine], with 700 to 2600 nM; and `Nc1cnc(-c2ccc3c(c2)CN(C(=O)N2CCC(C(F)(F)F)CC2)CCO3)cn1` [Compound 6, 5-(4-{[4-(trifluoromethyl)piperidin-1-yl]carbonyl}-2,3,4,5-tetrahydro-1,4-benzoxazepin-7-yl)pyrazin-2-amine], with 250 to 700 nM.
As to `CC1CCN(C(=O)N2CCOc3ccc(-c4cc(N)[nH]n4)cc3C2)CC1` [Compound 10, 3-{4-[(4-methylpiperidin-1-yl)carbonyl]-2,3,4,5-tetrahydro-1,4-benzoxazepin-7-yl}-1H-pyrazol-5-amine], the half-maximal inhibitory concentration (IC50) was 700 to 2600 nM.
Still for that read-out and setting: for `Cc1nc2ccc(-c3ccc4c(c3)CN(C(=O)N3CCCC[C@H]3c3ccccc3)CCO4)cc2[nH]1` [Compound 65, 7-(2-methyl-1H-benzimidazol-6-yl)-4-{[(2S)-2-phenylpiperidin-1-yl]carbonyl}-2,3,4,5-tetrahydro-1,4-benzoxazepine] the value was ≤ 50 nM; for `Cc1nc2ccc(-c3ccc4c(c3)CN(C(=O)N3[C@@H]5CC[C@H]3C[C@@H](N)C5)CCO4)cc2[nH]1` [Compound 77, 8-{[7-(2-methyl-1H-benzimidazol-6-yl)-2,3-dihydro-1,4-benzoxazepin-4(5H)-yl]carbonyl}-8-azabicyclo[3.2.1]octan-3-(endo)-amine], 700 to 2600 nM; for `Cc1nc2ccc(-c3ccc4c(c3)CN(C(=O)N3CCCCC3Cc3ccccc3)CCO4)cc2[nH]1` (stereo not shown) [Compound 104, 7-(2-methyl-1H-benzimidazol-6-yl)-4-{[2-(phenylmethyl)piperidin-1-yl]carbonyl}-2,3,4,5-tetrahydro-1,4-benzoxazepine], 250 to 700 nM.
In the case of `Cc1nc2ccc(-c3ccc4c(c3)CN(C(=O)N3CCCCC3c3ccc(F)cc3C)CCO4)cc2[nH]1` (stereo not shown) [Compound 117, 4-{[2-(4-fluoro-2-methylphenyl)piperidin-1-yl]carbonyl}-7-(2-methyl-1H-benzimidazol-6-yl)-2,3,4,5-tetrahydro-1,4-benzoxazepine], the IC50 lay in the range of 700 to 2600 nM.
Turning to `Cc1nc2ccc(-c3ccc4c(c3)CN(C(=O)N3CCCCC3c3ccccc3C)CCO4)cc2[nH]1` (stereo not shown) [Compound 126, 7-(2-methyl-1H-benzimidazol-6-yl)-4-{[2-(2-methylphenyl)piperidin-1-yl]carbonyl}-2,3,4,5-tetrahydro-1,4-benzoxazepine], the IC50 is 700 to 2600 nM.
In the case of `Cc1nc2ccc(-c3ccc4c(c3)CN(C(=O)N3CCC(O)(c5ccc(C(F)(F)F)cc5)CC3)CCO4)cc2[nH]1` [Compound 141, 1-{[7-(2-methyl-1H-benzimidazol-6-yl)-2,3-dihydro-1,4-benzoxazepin-4(5H)-yl]carbonyl}-4-[4-(trifluoromethyl)phenyl]piperidin-4-ol], the IC50 was in the range of 250 to 700 nM.
Still for that read-out and setting: for `Cc1nc2ccc(-c3ccc4c(c3)CN(C(=O)N3CCN(C)C(=O)C3)CCO4)cc2[nH]1` [Compound 146, 1-methyl-4-{[7-(2-methyl-1H-benzimidazol-6-yl)-2,3-dihydro-1,4-benzoxazepin-4(5H)-yl]carbonyl}piperazin-2-one] the value was 250 to 700 nM.
On the same count and under the same terms, for `Cc1nc2ccc(-c3ccc4c(c3)CN(C(=O)NC3[C@H]5C[C@@H]6C[C@@H](C[C@H]3C6)C5)CCO4)cc2[nH]1` (stereo partly drawn) [Compound 149, 7-(2-methyl-1H-benzimidazol-6-yl)-N-[(1r,3r,5R,7R)-tricyclo[3.3.1.1~3,7~]dec-2-yl]-2,3-dihydro-1,4-benzoxazepine-4(5H)-carboxamide] the value was 700 to 2600 nM.
Turning to `Cc1nc2ccc(-c3ccc4c(c3)CN(C(=O)N3CCN(Cc5c(F)cccc5Cl)CC3)CCO4)cc2[nH]1` [Compound 152, 4-({4-[(2-chloro-6-fluorophenyl)methyl]piperazin-1-yl}carbonyl)-7-(2-methyl-1H-benzimidazol-6-yl)-2,3,4,5-tetrahydro-1,4-benzoxazepine], the IC50 lay in the range of 250 to 700 nM.
For `CCC1CC2(CCN(C(=O)N3CCOc4ccc(-c5ccc6nc(C)[nH]c6c5)cc4C3)CC2)CC(=O)N1` (stereo not shown) [Compound 155, 4-ethyl-9-{[7-(2-methyl-1H-benzimidazol-6-yl)-2,3-dihydro-1,4-benzoxazepin-4(5H)-yl]carbonyl}-3,9-diazaspiro[5.5]undecan-2-one], the IC50 lay in the range of 250 to 700 nM.
As for `Cc1nc2ccc(-c3ccc4c(c3)CN(C(=O)N3CCN(c5ccccc5Cl)CC3)CCO4)cc2[nH]1` [Compound 159, 4-{[4-(2-chlorophenyl)piperazin-1-yl]carbonyl}-7-(2-methyl-1H-benzimidazol-6-yl)-2,3,4,5-tetrahydro-1,4-benzoxazepine], the IC50 was in the range of 700 to 2600 nM.
Turning to `COc1cccc(N2CCN(C(=O)N3CCOc4ccc(-c5ccc6nc(C)[nH]c6c5)cc4C3)CC2)c1` [Compound 160, 7-(2-methyl-1H-benzimidazol-6-yl)-4-({4-[3-(methyloxy)phenyl]piperazin-1-yl}carbonyl)-2,3,4,5-tetrahydro-1,4-benzoxazepine], the IC50 fell in the range of 700 to 2600 nM.
Consider `Cc1nc2ccc(-c3ccc4c(c3)CN(C(=O)N3CCN(c5ccccc5F)CC3)CCO4)cc2[nH]1` [Compound 165, 4-{[4-(2-fluorophenyl)piperazin-1-yl]carbonyl}-7-(2-methyl-1H-benzimidazol-6-yl)-2,3,4,5-tetrahydro-1,4-benzoxazepine], for which the IC50 was in the range of 700 to 2600 nM.
As for `Cc1nc2ccc(-c3ccc4c(c3)CN(C(=O)N3CCC(Cc5ccccc5)CC3)CCO4)cc2[nH]1` [Compound 171, 7-(2-methyl-1H-benzimidazol-6-yl)-4-{[4-(phenylmethyl)piperidin-1-yl]carbonyl}-2,3,4,5-tetrahydro-1,4-benzoxazepine], the IC50 was in the range of 250 to 700 nM.
Take `CCCCN(Cc1ccccc1)C(=O)N1CCOc2ccc(-c3ccc4nc(C)[nH]c4c3)cc2C1` [Compound 173, N-butyl-7-(2-methyl-1H-benzimidazol-6-yl)-N-(phenylmethyl)-2,3-dihydro-1,4-benzoxazepine-4(5H)-carboxamide]: the IC50 was 250 to 700 nM.

The values above are taken from patent US8637499B2, “Benzoxazepines as inhibitors of PI3K/mTOR and methods of their use and manufacture” (Exelixis, Inc., priority 2009, dated 2014).
